Where two headings read alike, the source gives them in different places.
Experiments:
[1] = test system: LCC6-WT breast carcinoma cell line; experiment: Tumor cell growth inhibition (SRB), LCC6-WT; type: cell-based, human; conditions: read-out: IC50 (±S.E.) LCC6-WT
Source text: (§1) HT-1080 and HT-1080/DR4 (MRP/LRP positive) fibrosarcoma cell lines (1,2) were obtained from Dr. Y. Rustum, Roswell Park Cancer Institute, Buffalo, N.Y. The A121 ovarian cell line (3) was provided by Dr. Kent Crickard, Buffalo General Hospital, Buffalo, N.Y. The MDA435/LCC6-WT and MDR^1 transfected cell lines (4) were provided by Dr. R. Clarke, Lombardi Cancer Center, Georgetown University School of Medicine. Cell lines were propagated as monolayers in RPMI-1640 containing 5% FCS, 5% NuSerum IV, 20 mM HEPES, 2 mM L-glutamine at 37° C. in a 5% CO2 humidified atmosphere.
(§2) Paclitaxel, which was used for comparison purposes and is not a compound of the present invention, was provided by Dr. I. Ojima, SUNY at Stonybrook. […] Paclitaxel was solubilized in 100% DMSO. […] For the second experiment (Experiment 2), less concentrated stock solutions (0.4 mM) of each compound were prepared in sterile H2O acidified with 10% 1 N HCl. […] All compounds were further diluted in RPMI-1640 containing 10 mM HEPES.
(§3) Assessment of cell growth inhibition was determined in 96 well microtiter plates according to the method of Skehan et al., “New Colorimetric Cytotoxicity Assay for Anticancer-Drug Screening, Articles 82(13):1107-1112 (1990). Briefly, cells were plated with 400-1800 cells/well in 96 well plates and incubated at 37° C. 15-18 hr prior to drug addition to allow for cell attachment. Each cell line was exposed to 12 concentrations of compound (a 6 log range), 5 replicate data points per compound concentration. […] Assays were terminated with 100 μl of ice-cold 50% TCA. After 1 hr at 4° C., plates were washed 5 times with tap water to remove TCA, low-molecular-weight metabolites and serum proteins. 50 μl of 0.4% sulforhodamine B (SRB) was added to each well. Following a five minute incubation at room temperature, plates were rinsed 5 times with 0.1% acetic acid and air dried. Bound dye was solubilized with 10 mM Tris Base (pH 10.5) for 5 min on a gyratory shaker. Optical density was measured at 570 nm.
(§4) Data were fit with the Sigmoid-Emax concentration-effect model (N. H. G. Holford and L. B. Scheiner, “Understanding the dose-effect relationship: Clinical applications of pharmacokinetic-pharmacodynamic models,” Clin. Pharmacokin. 6:429-453 (1981)) with nonlinear regression, weighted by the reciprocal of the square of the predicted response. The fitting software was developed at RPCI with Microsoft FORTRAN, and uses Marquardt algorithm (D. W. Marquardt, “An algorithm for least squares estimation of nonlinear parameters,” J. Soc. Ind. Appl. Math. 11:431-441) as adapted by Nash (J. C. Nash, Compact Numerical Method for Computers: Linear Algebra and Function Minimization, New York: John Wiley & Sons, 1979) for the nonlinear regression.

[2] = test system: HT-1080 fibrosarcoma cell line; experiment: Tumor cell growth inhibition (SRB), HT-1080; type: cell-based, human; conditions: 72-96 h, read-out: IC50 (±S.E.) HT-1080
Source text: as §1, §2, §3, §4

[3] = test system: A121 ovarian carcinoma cell line; experiment: Tumor cell growth inhibition (SRB), A121; type: cell-based, human; conditions: 72-96 h, read-out: IC50 (±S.E.) A121
Source text: as §1, §2, §3, §4

[4] = test system: HT-1080-DR4 doxorubicin selected MDR (MRP/LRP phenotype) fibrosarcoma cell line; experiment: Tumor cell growth inhibition (SRB), HT-1080-DR4; type: cell-based, human; conditions: for Resistance ratio (IC50 resistant cell line/IC50 parental line) HT1080/DR4: HT1080/DR4 versus HT-1080, range over experiments; for IC50: 72-96 h, read-out: IC50 (±S.E.) HT-1080-DR4
Source text: as §1, §2, §3, §4

[5] = test system: LCC6-MDR1 PgP transfected breast carcinoma cell line; experiment: cells; conditions: for Resistance ratio (IC50 resistant cell line/IC50 parental line) LCC6-MDR1: LCC6-MDR1 versus LCC6-WT, range over experiments
Source text: as §1, §2, §3, §4

[6] = Chemical hydrolysis in wet acetonitrile; type: physicochemical; conditions: ca. 1 mg/mL in wet acetonitrile, 26 days at room temperature
Description: A sample of solid acetate (Compound 4) was dissolved (ca. 1 mg/mL) in wet acetonitrile (nonanhydrous due to exposure to humid air).

[7] = Storage stability of trifluoroacetate product fraction solutions (analytical HPLC); type: physicochemical
[8] = Hande 1998; cited from earlier work
[9] = 4.0 mM stock solutions that had been stored at 4° C. for 7 days
[10] = Experiment 1, TX-001/TX-002 from 4.0 mM stocks, 72-96 h
[11] = Experiment 2, TX-001/TX-002 from 0.4 mM stocks, 72-96 h
[12] = Experiment 1, TX-001/TX-002 from 4.0 mM stocks
[13] = Experiment 2, TX-001/TX-002 from 0.4 mM stocks

Row | Molecule | Resistance ratio (IC50 resistant cell line/IC50 parental line) HT1080/DR4 [4] | Resistance ratio (IC50 resistant cell line/IC50 parental line) LCC6-MDR1 [5] | IC50 [1, 9] [nM] | IC50 [1, 10] [nM] | IC50 [1, 11] [nM] | IC50 [2, 12] [nM] | IC50 [2, 13] [nM] | IC50 [3, 12] [nM] | IC50 [3, 13] [nM] | IC50 [4, 12] [nM] | IC50 [4, 13] [nM] | other results
1 | CC(=O)O[C@H]1C(=O)[C@@]2(C)[C@H]([C@H](OC(=O)c3ccccc3)[C@]3(O)C[C@H](OC(=O)[C@H](O)[C@@H](NC(=O)c4ccccc4)c4ccccc4)C(C)=C1C3(C)C)[C@]1(OC(C)=O)CO[C@@H]1C[C@@H]2O [Paclitaxel, reference compound] | 1.1-1.4 fold | 65-92 fold |  |  |  |  |  |  |  |  |  | IC50 ([1]; Homo sapiens, Breast carcinoma cell, Experiment 1, TX-001/TX-002 from 4.0 mM stocks, 72-96 h): 4.7 ± 0.5 nM; IC50 ([1]; Homo sapiens, Breast carcinoma cell, Experiment 2, TX-001/TX-002 from 0.4 mM stocks, 72-96 h): 6 ± 2 nM; IC50 ([2]; Homo sapiens, HT-1080, Experiment 1, TX-001/TX-002 from 4.0 mM stocks): 4.5 ± 0.2 nM; IC50 ([2]; Homo sapiens, HT-1080, Experiment 2, TX-001/TX-002 from 0.4 mM stocks): 5.7 ± 0.3 nM; IC50 ([3]; Homo sapiens, A121, Experiment 1, TX-001/TX-002 from 4.0 mM stocks): 11 ± 0.5 nM; IC50 ([3]; Homo sapiens, A121, Experiment 2, TX-001/TX-002 from 0.4 mM stocks): 14 ± 1.3 nM; IC50 ([4]; Homo sapiens, Experiment 1, TX-001/TX-002 from 4.0 mM stocks): 4.9 ± 0.4 nM; IC50 ([4]; Homo sapiens, Experiment 2, TX-001/TX-002 from 0.4 mM stocks): 7.7 ± 0.1 nM; IC50 ([5]; Homo sapiens, LCC6MDR, read-out: IC50 (±S.E.) LCC6-MDR, Experiment 1, TX-001/TX-002 from 4.0 mM stocks, 72-96 h): 434 ± 28 nM; IC50 ([5]; Homo sapiens, LCC6MDR, read-out: IC50 (±S.E.) LCC6-MDR, Experiment 2, TX-001/TX-002 from 0.4 mM stocks, 72-96 h): 391 ± 52 nM
2 | CC(=O)O.CC(=O)OC1C(=O)C2(C)C(O)CC3OCC3(OC(C)=O)C2C(OC(=O)c2ccccc2)C2(O)CC(OC(=O)C(OC(=O)CCCC(=O)NCCOCCOCCN)C(NC(=O)c3ccccc3)c3ccccc3)C(C)=C1C2(C)C (stereo not drawn) [TX-002, 2′-Glutaramidyl-PEG2-amine-paclitaxel acetate] | 1.1-1.5 fold | 47-60 fold | 16 | 18 ± 1.1 | 38 ± 4.6 | 22 ± 0.9 | 49 ± 6.5 | 48 ± 3 | 171 ± 8.8 | 32 ± 1.5 | 54 ± 5.3 | IC50 ([5]; read-out: IC50 (±S.E.) LCC6-MDR, 4.0 mM stock solutions that had been stored at 4° C. for 7 days): 879 nM; IC50 ([5]; read-out: IC50 (±S.E.) LCC6-MDR, Experiment 1, TX-001/TX-002 from 4.0 mM stocks, 72-96 h): 1070 ± 45 nM; IC50 ([5]; read-out: IC50 (±S.E.) LCC6-MDR, Experiment 2, TX-001/TX-002 from 0.4 mM stocks, 72-96 h): 1800 ± 168 nM
3 | CC(=O)O.CC(=O)OC1C(=O)C2(C)C(O)CC3OCC3(OC(C)=O)C2C(OC(=O)c2ccccc2)C2(O)CC(OC(=O)C(OC(=O)CCC(=O)NCCOCCOCCN)C(NC(=O)c3ccccc3)c3ccccc3)C(C)=C1C2(C)C (stereo not drawn) [TX-001, 2′-Succinamidyl-PEG2-amine-paclitaxel Acetate] |  |  | 2.7 | 4.9 ± 0.5 | 13 ± 0.5 | 4.5 ± 0.4 | 19 ± 0.7 | 13 ± 0.5 | 37 ± 1.2 | 8.9 ± 0.4 | 36 ± 1.5 | chemical hydrolysis behavior [6]: converted quantitatively into paclitaxel
4 | 2′-Succinamidyl-PEG2-amine-paclitaxel trifluoroacetate [Compound 3] |  |  |  |  |  |  |  |  |  |  |  | average purity of product fraction solutions after storage ([7]; after storage at 8° C. for 16 days): 97.4%; average purity of product fraction solutions, initial ([7]; preparative HPLC fraction solutions, before storage): 98.8%
5 | COc1cc([C@@H]2c3cc4c(cc3[C@@H](O[C@@H]3O[C@@H]5CO[C@@H](C)O[C@H]5[C@H](O)[C@H]3O)[C@H]3COC(=O)[C@H]23)OCO4)cc(OC)c1O [Etoposide] |  |  |  |  |  |  |  |  |  |  |  | solubility in water [8]: nearly insoluble in water

Reference: patent US20040253206A1 (priority 1999, published 2004)
